Our source for the T/C values is PubChem BioAssay AID212 (DTP/NCI, 2004).

Values joined by “and” are separate entries in the source; they are usually repeats but may differ in a detail not shown here. Equal values may be shown once. Records with an inconclusive call do not appear.

The test relates to BDF1 mice, colon carcinoma 38 sc, T/C %. Put plainly: NCI In Vivo Anticancer Drug Screen. Data for tumor model Colon Carcinoma 38 (subcutaneous) in B6D2F1 (BDF1) mice. In short, it runs like this:
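Ratio of survival or tumor size, compound-treated animals relative to vehicle controls, in tumor-bearing mice.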

Where [1] appears, read: endpoint: median tumor weight (est.), dose: 100.0 mg/kg/injection, schedule: Q07DX002 (ip), vehicle: Klucel (hydroxypropylcellulose) (HPC), higher = larger tumour.
Where [2] appears, read: endpoint: median tumor weight (est.), dose: 200.0 mg/kg/injection, schedule: Q07DX002 (ip), vehicle: Klucel (hydroxypropylcellulose) (HPC), higher = larger tumour.
Where [3] appears, read: endpoint: median tumor weight (est.), dose: 400.0 mg/kg/injection, schedule: Q07DX002 (ip), vehicle: Klucel (hydroxypropylcellulose) (HPC), higher = larger tumour.
Setting [4] is: endpoint: median tumor weight (est.), dose: 25.0 mg/kg/injection, schedule: Q07DX002 (ip), vehicle: saline with Tween-80, higher = larger tumour.
Setting [5] is: endpoint: median tumor weight (est.), dose: 100.0 mg/kg/injection, schedule: Q07DX002 (ip), vehicle: saline with Tween-80, higher = larger tumour.
Setting [6] is: endpoint: median tumor weight (est.), dose: 200.0 mg/kg/injection, schedule: Q07DX002 (ip), vehicle: saline with Tween-80, higher = larger tumour.
The mark [7] stands for this setting: endpoint: median tumor weight (est.), dose: 400.0 mg/kg/injection, schedule: Q07DX002 (ip), vehicle: saline with Tween-80, higher = larger tumour.
Setting [8] is: endpoint: median tumor weight (est.), dose: 50.0 mg/kg/injection, schedule: Q07DX003 (ip), vehicle: saline, higher = larger tumour.

As to `O=C(O)[C@H](Cc1ccccc1)N1C(=O)c2ccccc2C1=O`, the T/C (endpoint: median tumor weight (est.), dose: 50.0 mg/kg/injection, schedule: Q07DX002 (ip), vehicle: DMSO, higher = larger tumour) was 98 % of control and the T/C (endpoint: median tumor weight (est.), dose: 100.0 mg/kg/injection, schedule: Q07DX002 (ip), vehicle: DMSO, higher = larger tumour) is 108 % of control.
Turning to `CC(=O)C1=C(O)C2(O)C(=O)c3c(c(C)c4ccc(C)c(O)c4c3O)CC2C(N)C1=O` (stereo not drawn), the T/C is 79 % of control and 95 % of control (endpoint: median tumor weight (est.), dose: 7.5 mg/kg/injection, schedule: Q07DX002 (ip), vehicle: saline + alcohol, higher = larger tumour); 87 % of control and 106 % of control (endpoint: median tumor weight (est.), dose: 15.0 mg/kg/injection, schedule: Q07DX002 (ip), vehicle: saline + alcohol, higher = larger tumour); 95 % of control and 107 % of control (endpoint: median tumor weight (est.), dose: 60.0 mg/kg/injection, schedule: Q07DX002 (ip), vehicle: saline + alcohol, higher = larger tumour); 87 % of control (endpoint: median tumor weight (est.), dose: 120.0 mg/kg/injection, schedule: Q07DX002 (ip), vehicle: saline + alcohol, higher = larger tumour).
With `C=C1C(=O)OC2/C=C(\CO)C(OC(C)=O)CC(O)/C(C)=C/C(OC(=O)C(C)CC)C12` (stereo not drawn), the T/C reads like this: under setting [1], 165 % of control; under setting [2], 95 % of control; under setting [3], 178 % of control.
Consider `CC(=O)C1(O)Cc2c(O)c3c(c(O)c2C(OC2CC(N)C(O)C(C)O2)C1)C(=O)c1ccccc1C3=O` (stereo not drawn), for which the T/C is 118 % of control (endpoint: median survival time, dose: 1.4 mg/kg/injection, schedule: Q07DX002 (iv), vehicle: saline, higher = longer survival); 66 % of control (endpoint: median tumor weight (est.), dose: 0.37 mg/kg/injection, schedule: Q07DX002 (ip), vehicle: saline, higher = larger tumour); 67 % of control (endpoint: median tumor weight (est.), dose: 0.75 mg/kg/injection, schedule: Q07DX002 (ip), vehicle: saline, higher = larger tumour).
Consider `CC1(CO)C(O)CCC2(C)C1CCC1CC3CC12CCC3(O)CO` (stereo not drawn), for which the T/C (endpoint: median tumor weight (est.), dose: 12.5 mg/kg/injection, schedule: Q07DX002 (ip), vehicle: saline with Tween-80, higher = larger tumour) is 120 % of control; the T/C under setting [4] was 103 % of control; the T/C (endpoint: median tumor weight (est.), dose: 50.0 mg/kg/injection, schedule: Q07DX002 (ip), vehicle: saline with Tween-80, higher = larger tumour) was 100 % of control; the T/C under setting [5] was 124 % of control; the T/C under setting [6] was 77 % of control; the T/C under setting [7] is 89 % of control.
For `C[n+]1c(-c2cccc3ccccc23)c2cc(N)ccc2c2ccccc21`, the T/C runs as follows: (endpoint: median tumor weight (est.), dose: 3.12 mg/kg/injection, schedule: Q07DX002 (ip), vehicle: saline, higher = larger tumour) 107 % of control; (endpoint: median tumor weight (est.), dose: 3.12 mg/kg/injection, schedule: Q07DX002 (ip), vehicle: suspension in saline, higher = larger tumour) 160 % of control; (endpoint: median tumor weight (est.), dose: 6.25 mg/kg/injection, schedule: Q07DX002 (ip), vehicle: saline, higher = larger tumour) 122 % of control; (endpoint: median tumor weight (est.), dose: 6.25 mg/kg/injection, schedule: Q07DX002 (ip), vehicle: suspension in saline, higher = larger tumour) 110 % of control; (endpoint: median tumor weight (est.), dose: 12.5 mg/kg/injection, schedule: Q07DX002 (ip), vehicle: saline, higher = larger tumour) 64 % of control and 85 % of control; (endpoint: median tumor weight (est.), dose: 12.5 mg/kg/injection, schedule: Q07DX002 (ip), vehicle: suspension in saline, higher = larger tumour) 256 % of control. For the same molecule, the T/C was 67 % of control and 79 % of control (endpoint: median tumor weight (est.), dose: 25.0 mg/kg/injection, schedule: Q07DX002 (ip), vehicle: saline, higher = larger tumour); 193 % of control (endpoint: median tumor weight (est.), dose: 25.0 mg/kg/injection, schedule: Q07DX002 (ip), vehicle: suspension in saline, higher = larger tumour).
For the molecule `c1ccc2c(c1)[As]=c1ccccc1=[As]2` (stereo not drawn), the T/C (endpoint: median tumor weight (est.), dose: 3.0 mg/kg/injection, schedule: Q07DX002 (ip), vehicle: saline, higher = larger tumour) is 124 % of control.
With `CCN1/C(=C/C=C/C=C/c2sc3ccccc3[n+]2CC)Sc2ccccc21`, the T/C runs as follows: (endpoint: median tumor weight (est.), dose: 0.03 mg/kg/injection, schedule: Q07DX002 (ip), vehicle: saline, higher = larger tumour) 151 % of control; (endpoint: median tumor weight (est.), dose: 0.03 mg/kg/injection, schedule: Q07DX002 (ip), vehicle: suspension in saline, higher = larger tumour) 59 % of control; (endpoint: median tumor weight (est.), dose: 0.06 mg/kg/injection, schedule: Q07DX002 (ip), vehicle: saline, higher = larger tumour) 167 % of control; (endpoint: median tumor weight (est.), dose: 0.06 mg/kg/injection, schedule: Q07DX002 (ip), vehicle: suspension in saline, higher = larger tumour) 104 % of control; (endpoint: median tumor weight (est.), dose: 0.12 mg/kg/injection, schedule: Q07DX002 (ip), vehicle: saline, higher = larger tumour) 122 % of control; (endpoint: median tumor weight (est.), dose: 0.12 mg/kg/injection, schedule: Q07DX002 (ip), vehicle: suspension in saline, higher = larger tumour) 100 % of control. Also, the T/C by setting is: (endpoint: median tumor weight (est.), dose: 0.25 mg/kg/injection, schedule: Q07DX002 (ip), vehicle: suspension in saline, higher = larger tumour) 104 % of control; (endpoint: median tumor weight (est.), dose: 0.5 mg/kg/injection, schedule: Q07DX002 (ip), vehicle: saline, higher = larger tumour) 162 % of control; (endpoint: median tumor weight (est.), dose: 0.5 mg/kg/injection, schedule: Q07DX002 (ip), vehicle: suspension in saline, higher = larger tumour) 109 % of control; (endpoint: median tumor weight (est.), dose: 1.0 mg/kg/injection, schedule: Q07DX002 (ip), vehicle: saline, higher = larger tumour) 197 % of control.
In the case of `OCCOCC(F)(F)F`, the T/C was 86 % of control under setting [4]; 120 % of control and 104 % of control under setting [6]; 116 % of control and 102 % of control under setting [7].
Regarding `CC[n+]1ccc(Nc2ccc(NC(=O)c3ccc(C(=O)Nc4ccc(Nc5cc[n+](CC)c(N)n5)cc4)cc3)cc2)nc1N`, the T/C is, setting by setting: (endpoint: median tumor weight (est.), dose: 6.25 mg/kg/injection, schedule: Q07DX003 (ip), vehicle: saline, higher = larger tumour) 89 % of control; (endpoint: median tumor weight (est.), dose: 6.25 mg/kg/injection, schedule: Q07DX003 (ip), vehicle: suspension in saline, higher = larger tumour) 70 % of control; (endpoint: median tumor weight (est.), dose: 12.5 mg/kg/injection, schedule: Q07DX003 (ip), vehicle: saline, higher = larger tumour) 55 % of control; (endpoint: median tumor weight (est.), dose: 25.0 mg/kg/injection, schedule: Q07DX003 (ip), vehicle: saline, higher = larger tumour) 67 % of control; (endpoint: median tumor weight (est.), dose: 25.0 mg/kg/injection, schedule: Q07DX003 (ip), vehicle: suspension in saline, higher = larger tumour) 123 % of control; under setting [8], 67 % of control. Also, the T/C runs as follows: (endpoint: median tumor weight (est.), dose: 50.0 mg/kg/injection, schedule: Q07DX003 (ip), vehicle: suspension in saline, higher = larger tumour) 54 % of control; (endpoint: median tumor weight (est.), dose: 100.0 mg/kg/injection, schedule: Q07DX003 (ip), vehicle: saline, higher = larger tumour) 56 % of control; (endpoint: median tumor weight (est.), dose: 100.0 mg/kg/injection, schedule: Q07DX003 (ip), vehicle: suspension in saline, higher = larger tumour) 36 % of control.
Turning to `O=C(O)CC(NC(=O)CP(=O)(O)O)C(=O)O` (stereo not drawn), the T/C by setting is: under setting [8], 95 % of control; (endpoint: median tumor weight (est.), dose: 51.8 mg/kg/injection, schedule: Q01DX004 (ip), vehicle: saline, higher = larger tumour) 102 % of control; (endpoint: median tumor weight (est.), dose: 86.4 mg/kg/injection, schedule: Q01DX004 (ip), vehicle: saline, higher = larger tumour) 75 % of control; (endpoint: median tumor weight (est.), dose: 119.0 mg/kg/injection, schedule: Q01DX009 (ip), vehicle: saline, higher = larger tumour) 34 % of control; (endpoint: median tumor weight (est.), dose: 144.0 mg/kg/injection, schedule: Q01DX004 (ip), vehicle: saline, higher = larger tumour) 12 % of control; (endpoint: median tumor weight (est.), dose: 178.0 mg/kg/injection, schedule: Q01DX009 (ip), vehicle: saline, higher = larger tumour) 12 % of control. For the same molecule, the T/C reads like this: (endpoint: median tumor weight (est.), dose: 180.0 mg/kg/injection, schedule: Q04DX004 (ip), vehicle: saline, higher = larger tumour) 79 % of control; (endpoint: median tumor weight (est.), dose: 200.0 mg/kg/injection, schedule: Q07DX003 (ip), vehicle: saline, higher = larger tumour) 115 % of control; (endpoint: median tumor weight (est.), dose: 240.0 mg/kg/injection, schedule: Q01DX004 (ip), vehicle: saline, higher = larger tumour) 9 % of control; (endpoint: median tumor weight (est.), dose: 300.0 mg/kg/injection, schedule: Q04DX004 (ip), vehicle: saline, higher = larger tumour) 75 % of control; (endpoint: median tumor weight (est.), dose: 370.0 mg/kg/injection, schedule: Q07DX003 (ip), vehicle: saline, higher = larger tumour) 70 % of control; (endpoint: median tumor weight (est.), dose: 400.0 mg/kg/injection, schedule: Q07DX003 (ip), vehicle: saline, higher = larger tumour) 75 % of control. The T/C is, setting by setting: (endpoint: median tumor weight (est.), dose: 500.0 mg/kg/injection, schedule: Q04DX004 (ip), vehicle: saline, higher = larger tumour) 58 % of control; (endpoint: median tumor weight (est.), dose: 552.0 mg/kg/injection, schedule: Q07DX003 (ip), vehicle: saline, higher = larger tumour) 40 % of control; (endpoint: median tumor weight (est.), dose: 800.0 mg/kg/injection, schedule: Q07DX003 (ip), vehicle: saline, higher = larger tumour) 21 % of control.
Take `C=C[Si]12OCCN(CCO1)CCO2`: the T/C reads like this: (endpoint: median tumor weight (est.), dose: 25.0 mg/kg/injection, schedule: Q07DX002 (ip), vehicle: Klucel (hydroxypropylcellulose) (HPC), higher = larger tumour) 73 % of control and 90 % of control; under setting [1], 29 % of control; under setting [2], 93 % of control and 97 % of control.
In the case of `Cc1ccc(S(=O)(=O)NC(=O)C2C(=O)CC3(CCCCC3)CC2=O)cc1`, the T/C reads like this: (endpoint: median tumor weight (est.), dose: 50.0 mg/kg/injection, schedule: Q07DX002 (ip), vehicle: Klucel (hydroxypropylcellulose) (HPC), higher = larger tumour) 104 % of control; under setting [1], 112 % of control; under setting [2], 95 % of control; under setting [3], 102 % of control.
For the molecule `CCN(CC)CCOC(=O)Cc1cccc2c(=O)cc(-c3ccc(Cl)cc3)oc12`, the T/C under setting [5] is 48 % of control and the T/C under setting [6] was 4 % of control.
